For one series, the target named is human MCH1 receptor (Homo sapiens, UniProt Q99705). Nature of the series: Functional assay: intracellular calcium mobilization (antagonist potency Kb). In kind it is cell-based. On the set-up: expressed in transfected cells; host or cells: COS-7 cells, transient, DEAE-dextran, plasmid pEXJ.HR-TL231 (ATCC 203197). How it is done:
Intracellular calcium mobilization assays for the MCH1 receptor were carried out using plasmid pEXJ.HR-TL231 (ATCC Accession No. 203197). COS-7 cells were transiently transfected with DNA encoding the MCH1 receptor utilizing the DEAE-dextran method as described above. The intracellular free calcium concentration was measured by fluorescent imaging using the calcium sensitive fluorscent dye Fluo-3. COS-7 cells expressing the human MCH1 receptor were seeded onto sterile 96 well plates, washed with Hank's balanced salt solution (HBSS), containing 20 mM HEPES, 2.5 mM probenecid, and 0.1% BSA, and loaded with the same buffer containing 3.8 μM Fluo-3 for 1 hour at 37° C. After washing with HBSS to remove the fluo-3 solution, cells were equilibrated for 10 minutes.

Where [1] appears, read: Table 1, cloned human MCH1 receptor, functional assay, read-out: Kb (nM) hMCH1.
The mark [2] stands for this setting: Table 2, antagonist potency at the human MCH1 receptor, read-out: hMCH1 Kb.
Where [3] appears, read: Table 3, antagonist potency at the human MCH1 receptor, read-out: hMCH1 Kb.
[4] abbreviates: read-out: hMCH1 Kb, Table 3, antagonist potency at the human MCH1 receptor.

Structures can show the parent of a compound that is named as a salt. Where two headings read alike, the source gives them in different places.

human MCH1 receptor, sequence (Q99705 whole entry): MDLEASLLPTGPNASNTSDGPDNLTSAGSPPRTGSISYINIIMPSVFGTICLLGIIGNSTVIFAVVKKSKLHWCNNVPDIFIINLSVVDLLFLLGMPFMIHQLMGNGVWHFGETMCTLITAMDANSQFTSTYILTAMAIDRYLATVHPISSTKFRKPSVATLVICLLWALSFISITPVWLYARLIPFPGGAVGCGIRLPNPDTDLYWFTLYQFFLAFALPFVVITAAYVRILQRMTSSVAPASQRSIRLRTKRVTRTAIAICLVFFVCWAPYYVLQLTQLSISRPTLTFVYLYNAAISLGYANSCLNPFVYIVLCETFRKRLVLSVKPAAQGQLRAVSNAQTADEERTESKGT

As to `O=C(CCCN1CCC(NC(=O)c2ccccc2)CC1)c1ccc(Cl)cc1` (as salt: HCl) [Example 28, 1-[3-(4-CHLOROBENZOYL)]PROPYL-4-BENZAMIDOPIPERIDINE], the melting point fell in the range of 243 to 244 °C. As for `COCC1=C(C(=O)OC)C(c2ccc(F)c(F)c2)N(C(=O)NCCCN2CCC(OC(C)=O)(c3ccccc3)CC2)C(=O)N1` (stereo not drawn) (as salt: hydrochloride) [Example 3, (1)-1,2,3,6-TETRAHYDRO-1-{N-[3-(4-O-ACETYL)-4-PHENYLPIPERIDIN-1-YL]PROPYL}CARBOXAMIDO-5-METHOXYCARBONYL-4-METHOXYMETHYL-6-(3,4-DIFLUOROPHENYL)-2-OXOPYRIMIDINE], the melting point fell in the range of 82 to 84 °C. Same read-out and setting: then `COC(=O)C1=C(C)NC(=O)N(C(=O)NCCCN2CCC3(CC2)OCc2ccccc23)C1c1ccc(F)c(F)c1` (stereo not drawn) (as salt: hydrochloride) [Example 20, 4-(3,4-DIFLUORPHENYL)-6-METHYL-2-OXO-3-{[3-(4-SPIRO[ISOBENZO-FURAN-1(3H),4′-PIPERIDINE]PROPYL}-1,2,3,4-TETRAHYDROPYRIMIDINE-5-CARBOXYLIC ACID METHYL ESTER], with 178 to 182 °C; and `COC(=O)C1=C(C)NC(=O)N(C(=O)NCCCN2CCN(c3ccccc3C)CC2)C1c1ccc(F)c(F)c1` (stereo not drawn) (as salt: hydrochloride) [Example 35, 1,2,3,6-TETRAHYDRO-1{N-[4-(2′-METHYL-PHENYL)PIPERAZIN-1-YL]-PROPYL}-CARBOXAMIDO-4-METHYL-6-(3,4-DIFLUOROPHENYL)-2-OXO-PYRIMIDINE], with 66 to 71 °C. Consider `COC(=O)C1=C(C)NC(=O)N(C(=O)NCCCN2CCC3(CCc4ccccc43)CC2)C1c1ccc2nonc2c1` (racemic) [Example 21], for which the Kb on human MCH1 receptor (setting [1]) came to 28 nM. On to `COC(=O)C1=C(C)NC(=O)N(C(=O)NCCCN2CCC3(CC2)OCc2ccccc23)C1c1ccc2nonc2c1` (single isomer, unassigned) (as salt: hydrochloride) [Example 18], for which the melting point lay in the range of 180 to 182 °C. Same read-out and setting: to `COC(=O)C1=C(C)NC(=O)N(C(=O)NCCCN2CCN(c3ccccc3[N+](=O)[O-])C[C@@H]2C)C1c1ccc(F)c(F)c1` (single isomer, unassigned; (+)) (as salt: HCl) [Example 34] belongs 150 to 153 °C; to `COCC1=C(C(=O)OC)C(c2ccc(F)c(F)c2)N(C(=O)NCCCN2CCC(c3cccc4ccccc34)CC2)C(=O)N1` (single isomer, unassigned; (+)) [Example 14, (+)-1,2,3,6-TETRAHYDRO-1-{N-[4-(1-NAPHTHYL)-PIPERIDIN-1-YL]PROP-YL}CARBOXAMIDO-4-METHOXYMETHYL-6-(3,4-DIFLUOROPHENYL)-2-OXO-PYRIMIDINE-5-CARBOXYLIC ACID METHYL ESTER], 168 to 172 °C. Still for that read-out and setting: then `COCC1=C(C(=O)OC)C(c2ccc(F)c(F)c2)N(C(=O)NCCCN2CCC(O)(c3ncccc3C)CC2)C(=O)N1` (single isomer, unassigned; (+)) [Example 16], with 132 to 135 °C.

Take `COC(=O)C1=C(C)NC(=O)N(C(=O)NCCCN2CCN(c3ccccc3[N+](=O)[O-])C[C@@H]2C)C1c1ccc(F)c(F)c1` (single isomer, unassigned; (+)) [Example 34]: the antagonist dissociation constant (Kb) at human MCH1 receptor (setting [1]) was 182 nM. Turning to `COCC1=C(C(=O)OC)C(c2ccc(F)c(F)c2)N(C(=O)NCCCN2CC=C(c3cccc(NC(C)=O)c3)CC2)C(=O)N1` (stereo not drawn) [Example 2, METHYL 3-[(3-4-[3-(ACETYLAMINO)PHENYL]-1,2,3,6-TETRAHYDRO-1-PYR-IDINYLPROPYL)AMINO]CARBONYL-4-(3,4-DIFLUOROPHENYL)-6-(METHOXY-METHYL)-2-OXO-1,2,3,4-TETRAHYDRO-5-PYRIMIDINECARBOXYLATE], the Kb on human MCH1 receptor (setting [1]), at human MCH1 receptor (setting [2]) and on human MCH1 receptor (setting [3]) was 18 nM in each case. `COCC1=C(C(=O)OC)C(c2ccc(F)c(F)c2)N(C(=O)NCCCN2CCC(OC(C)=O)(c3ccccc3)CC2)C(=O)N1` (stereo not drawn) [Example 3, (1)-1,2,3,6-TETRAHYDRO-1-{N-[3-(4-O-ACETYL)-4-PHENYLPIPERIDIN-1-YL]PROPYL}CARBOXAMIDO-5-METHOXYCARBONYL-4-METHOXYMETHYL-6-(3,4-DIFLUOROPHENYL)-2-OXOPYRIMIDINE]: on human MCH1 receptor, the Kb came out at 201 nM. In turn, `O=C(NC1CCN(CCC2CCc3ccccc3C2=O)CC1)c1ccccc1` (stereo not drawn) [Example 5] returned a melting point of 158 to 159 °C. Besides, at human MCH1 receptor (setting [1]), the antagonist equilibrium constant (Kb) was 258 nM. Consider `CCCCN(CCCC)c1ccc(CN2CCC(CNC(=O)N3C(=O)NC(C)=C(C(=O)OC)C3c3ccc4nonc4c3)CC2)cc1` (stereo not drawn) [Example 6], for which the Kb at human MCH1 receptor (setting [1]), at human MCH1 receptor (setting [2]) and on human MCH1 receptor (setting [3]) was 42 nM in each case. Turning to `COC(=O)C1=C(C)NC(=O)N(C(=O)NCCCN2CCC(c3ccccc3)CC2)C1c1ccc2nonc2c1` (stereo not drawn) [Example 8, 6-(BENZOFURAZAN-5-YL)-1,2,3,6-TETRAHYDRO-5-METHOXYCARBONYL-4-METHYL-2-OXO-1-{N-[3-(4-PHENYLPIPERIDIN-1-YL)PROPYL]}CARBOXAMIDO-PYRIMIDINE], the antagonist equilibrium constant (Kb) at human MCH1 receptor (setting [1]) came to 88 nM. For the compound `COC(=O)C1=C(C)NC(=O)N(C(=O)NCCCN2CCC(c3ccccc3)CC2)C1c1ccc(F)c(F)c1` (stereo not drawn) [Example 11, 6-(3,4-DIFLOUROPHENYL)-1,2,3,6-TETRAHYDRO-5-METHOXYCARBONYL-4-METHYL-2-OXO-1-{N-[3-(4-PHENYLPIPERIDIN-1-YL) PROPYL]}CARBOXAMIDO-PYRIMIDINE], the antagonist equilibrium constant (Kb) at human MCH1 receptor (setting [1]) was determined as 331 nM. Regarding `CCCCN(CCCC)c1ccc(CNC[C@H]2CC[C@H](NC(=O)c3cccc4ccccc34)CC2)cc1` [Example 13, N1-[4-([4-(DIBUTYLAMINO)BENZYL]AMINOMETHYL)CYCLOHEXYL]-1-NAPHTH-AMIDE], the Kb on human MCH1 receptor (setting [1]), at human MCH1 receptor (setting [2]) and at human MCH1 receptor (setting [3]) was 284 nM in each case. Turning to `COC(=O)C1=C(C)NC(=O)N(C(=O)NCCCN2CCC3(CC2)OCc2ccccc23)C1c1ccc(F)c(F)c1` (stereo not drawn) [Example 20, 4-(3,4-DIFLUORPHENYL)-6-METHYL-2-OXO-3-{[3-(4-SPIRO[ISOBENZO-FURAN-1(3H),4′-PIPERIDINE]PROPYL}-1,2,3,4-TETRAHYDROPYRIMIDINE-5-CARBOXYLIC ACID METHYL ESTER], the Kb amounted to 5 nM on human MCH1 receptor; 5 nM on human MCH1 receptor (read-out: Kb (nM) hMCH1, Table 1, cloned human MCH1 receptor, functional assay); 5 nM at human MCH1 receptor (setting [4]). Consider `Fc1ccc(C(c2ccc(F)cc2)N2CCN(C/C=C/c3ccccc3)CC2)cc1` [Example 26, 1-[BIS(4-FLUOROPHENYL)METHYL]-4-(3-PHENYL-2-PROPENYL)PIPERAZINE], for which the Kb at human MCH1 receptor (setting [1]) and on human MCH1 receptor (setting [2]) was 260 nM throughout. `Cc1cc(O)cc(O)c1/C=N/c1ccc(-c2cn3ccccc3n2)cc1` [Example 27]: the Kb on human MCH1 receptor (setting [1]) and on human MCH1 receptor (setting [2]) was 279 nM throughout.

As to `O=C(CCCN1CCC(O)(c2ccc(Cl)cc2)CC1)c1ccc(Cl)cc1` [Example 29], the Kb on human MCH1 receptor worked out at 9 nM; at human MCH1 receptor (read-out: hMCH1 Kb, Table 2, antagonist potency at the human MCH1 receptor) it was 9 nM; at human MCH1 receptor (setting [4]), 9 nM. Turning to `CN1CN(c2ccccc2)C2(CCN(CCCC(=O)c3ccc(F)cc3)CC2)C1=O` [Example 30, N-METHYL-8-[4-(4-FLUOROPHENYL)-4-OXOBUTYL]-1-PHENYL-1,3,8-TRI-AZASPIRO-[4.5]DECAN-4-ONE], the Kb on human MCH1 receptor (setting [1]) and on human MCH1 receptor (setting [2]) was 479 nM in each case. Take `O=[N+]([O-])c1ccccc1S(=O)(=O)n1nnc2ccccc21` [Example 31, 1H-1,2,3-BENZOTRIAZOL-1-YL (2-NITROPHENYL) SULFONE]: at human MCH1 receptor (setting [1]), the antagonist dissociation constant (Kb) turned out to be 7 nM. For the compound `COC(=O)C1=C(C)NC(=O)N(C(=O)NCCCN2CCC3(CCc4ccccc43)CC2)C1c1ccc(F)c(F)c1` (stereo not drawn) [Example 32, (1)-1,2,3,6-TETRAHYDRO-1-{N-[4-(DIHYDROINDENE)-1-YL}PROPYL}-CARBOXAMIDO-5-METHOXYCARBONYL-2-OXO-6-(3,4-DIFLUORO)-4-METHYL-PYRIMIDINE], the melting point was 150 to 153 °C. Besides, at human MCH1 receptor, the Kb was 67 nM.

As for `COC(=O)C1=C(C)NC(=O)N(C(=O)NCCCN2CCN(c3ccccc3C)CC2)C1c1ccc(F)c(F)c1` (stereo not drawn) [Example 35, 1,2,3,6-TETRAHYDRO-1{N-[4-(2′-METHYL-PHENYL)PIPERAZIN-1-YL]-PROPYL}-CARBOXAMIDO-4-METHYL-6-(3,4-DIFLUOROPHENYL)-2-OXO-PYRIMIDINE], at human MCH1 receptor (setting [1]), the Kb turned out to be 276 nM.

As for “(1)-1,2,3,6-TETRAHYDRO-1-{N-[4-(3,4-DIHYDRO-2-OXOSPIRONAPHTHALENE-1(2H))-PIPERIDINE-1-YL]PROPYL}CARBOXAMIDO-5-METHOXY-CARBONYL-2-OXO-6-(3,4-DIFLUOROPHENYL)-4-METHYL-PYRIMIDINE [Example 24]”, the Kb at human MCH1 receptor (setting [1]) turned out to be 102 nM. “(1)-1,2,3,6-TETRAHYDRO-1-{N-[4-(3,4-DIHYDRO-2-OXOSPIRONAPHTHALENE-1(2H))-PIPERIDINE-1-YL]PROPYL}CARBOXAMIDO-5-METHOXYCARBONYL-2-OXO-6-(3,4-BENZOFURAZAN)-4-METHYLPYRIMIDINE HYDROCHLORIDE [Example 23]”: at human MCH1 receptor (setting [1]), the antagonist equilibrium constant (Kb) turned out to be 68 nM.

(Values after patent publication US6720324B2, “Selective melanin concentrating hormone-1 (MCH1) receptor antagonists and uses thereof” (Synaptic Pharmaceutical Corporation, priority 2000, dated 2004).)
